Test results reported in US20220177484A1, “MACROCYCLES WITH ANTIOXIDANT AND NEUROPROTECTIVE ACTIVITIES” (INSTITUTO BIOMAR, S.A, priority 2019, published 2022).

Assays:
[1] = tested on: cortical primary neurons (from C57BL6/J mice); test: H2O2 production in neurons after excitotoxic NMDA stimulus (Amplex Red); assay type: cell-based; conditions: 100 μM NMDA 10 min, then compound 0.1, 1, 5 μM (FIG. 5)
Protocol: For NMDA receptors activation, neurons at 8 days in vitro were incubated with 100 μM NMDA for 10 minutes. Neurons were then washed and further incubated for 4 hours in culture medium with DMSO only (DMSO empty bar), DMSO and NMDA (DMSO filled bar) and with increasing quantities of GKK1032C, GKK1032, Pyrrocidine A, Pyrrocidine B, CL0661, CL0667 and CL0670. Concentrations of 0.1 μM, 1 μM, 5 μM. *: p-value <0.05 vs. DMSO+NMDA (student's test).
Experiments were performed in […] cortical primary neurons, obtained as was previously described (Herrero-Mendez A. et al., Nat. Cell. Biol. 11:747-752, 2009). After 7 or 8 days in B27-MAO culture, neurons (from C57BL6/J mice) were incubated in the presence of N-methyl-D-aspartate (NMDA, a H2O2 production promoter; 100 μM) for 10 minutes, followed by a PBS washing step and submitted to a 24-hour B27 incubation step in the absence (DMSO) or presence of increasing amounts of GKK1032C, GKK1032, Pyrrocidine B, Pyrrocidine A, CL0661, CL0665, CL0667 and CL0670 (0.1 μM, 1 μM and 5 μM). B27-MAO stands for Neurobasal medium, supplemented with B27 supplement in the absence of antioxidants (minus antioxidants, MAO).
The release of H2O2 was measured using the fluorescent method Amplex© Red hydrogen peroxide/peroxidase assay kit (Invitrogen, catalog number A22188) using a multiwell fluorescence reader (Varioskan, Thermo Scientific).
The data are presented as the mean values±standard deviation of the mean from n=3.

C57BL6/J male mice [2] = test: Rotarod test in 3-nitropropionic acid chemical model of Huntington's disease; assay type: in vivo; conditions: group II injected with GKK1032C and CL0670, once-daily 150 mg/kg for 3 days, plus 3-nitropropionic acid 50 mg/kg twice daily; after two administrations (FIG. 15)
Protocol: Compound I and CL0670 injections were performed at day 1 and day 2. 3-nitropropionic acid injections were performed at days 1, 1.5, 2, 2.5, 3 and 3.5. The shown data points were obtained 2 hours after the injections. p-value<0.05 vs. control (student's test).
A chemical model of Huntington's disease was conducted to evaluate the capacity of compound I and CL0670 in protecting neurons. This is achieved by intraperitoneal injection of 3-nitropropionic acid which induces neuronal oxidative stress by inhibiting the succinate dehydrogenase enzyme.
8-weeks old C57BL6/J male mice were divided into 4 groups.
Mice in group I (4 mice) were injected with GKK1032C and CL0670 (once-daily dose of 150 mg/kg for 3 days).
Mice in group II (5 mice) were injected with GKK1032C and CL0670 (once-daily dose of 150 mg/kg for 3 days) and with 3-nitropropionic acid (twice daily dose of 50 mg/kg for 3 days). In the case of group II, 3-nitropropionic acid was injected two hours and twelve hours after injection with GKK1032C and CL0670.
Mice in group III (5 mice) were injected with 3-nitropropionic acid (twice daily dose of 50 mg/kg for 3 days).
Mice in group IV (6 mice) were injected with vehicle only.
The mice were submitted to the rotarod test once-daily, 2 hours after the injections. […]

C57BL6/J male mice [3] = test: Stroke size after Middle Cerebral Artery occlusion (tetrazolium chloride); assay type: in vivo; conditions: for protection of the stroke volume caused by the Middle Cerebral Artery occlusion: GKK1032C and CL0670 10 mg/kg intravenously (FIG. 19); for percentage averaged stroke volume: mice treated with GKK1032C and CL0670 10 mg/kg intravenously after MCA occlusion, untreated ischemia ˜48%
From the text: FIG. 19 is the graphical representation of the volume of the cerebral stroke of mice submitted to Middle Cerebral Artery occlusion effect (empty bar) and of mice submitted to Middle Cerebral Artery occlusion and administration of Compound I and CL0670 (solid bar). *: p-value<0.05 vs. ischemia (student's test).
Middle Cerebral Artery occlusion involves temporarily or permanently restricting MCA blood flow to the cortex and striatum. The cerebral ischemic model of stroke is commonly used to assess ischemic injury in the brain. Occlusion of the middle cerebral artery (MCA) leads to a reduction of cerebral blood flow in both the striatum and the cortex. It is a highly reproducible model that results in brain damages similar to those occurring in human stroke.
Compounds GKK1032C and CL0670 were administered intravenously at a dose of 10 mg/kg. 11-week old C57BL6/J male mice were divided into 3 groups of 7 mice each: mice submitted to Middle Cerebral Artery occlusion (ischemia), mice submitted to Middle Cerebral Artery occlusion and administration of GKK1032C and CL0670.
All mice were firstly trained in the rotarod for 3 consecutive days. After this period, the mice were put to sleep with sevoflurane and submitted to surgery. Occlusion was performed by maintain the surgical filament occluding the middle cerebral artery for 30 minutes. Once removed, GKK1032C and CL0670 were injected at the jugular vein. 24 hours after reanimation, the animals were submitted to the rotarod test.
To compare the neuroprotective effect caused by GKK1032C and CL0670 to the motor coordination of mice and the cerebral damage caused by the chirurgical procedure, the animals were sacrificed, and the stroke size measured by visual inspection after treatment with tetrazolium chloride. […] The data confirms that GKK1032C and CL0670 are excellent neuroprotector agents against stroke.

[4] = tested on: SH-SY5Y human neuroblastoma cells expressing EGFP-alphasynuclein-A53T; test: Mutated α-synuclein aggregation in transfected SH-SY5Y cells; assay type: cell-based; conditions: 5 μM, 24 h
Protocol: Mutated α-synuclein protein aggregation are indicated by white arrows, GFP α-synuclein protein (green) and β-tubulin (red). The images were acquired using the Operetta CLS automated confocal microscope, using the 40× water immersion objective.
SH-SY5Y human neuroblastoma cells were maintained in Dulbecco's modified Eagle's medium (DMEM) supplemented with 10% fetal bovine serum (FBS), 2 mM L-glutamine and 100 U/mL penicillin-0.1 mg/mL streptomycin at 37° C. and 5% CO2.
To study the effect of compounds on mutated huntingtin and synuclein that accumulates in cells, SH-SY5Y were transfected with a constitutively active mutated-huntingtin expression vector pEGFP-Q74 (encoding EGFP protein fused to a fragment of huntingtin corresponding to the exon 1 with 74 CAG repeats; c.54GCA[74]; Addgene; #40262) and EGFP-alphasynuclein-A53T (Addgene; #40823).
For transfection assays, cells were seeded (30×10^3 cells/cm^2) on 96-multiwell plates (coated with poliornitine-fibronectine). Cells were transfected with 0.3 μg pEGFP-Q74 plasmid using LTX with Plus Reagent according to the manufacturer's instructions (Thermo Fisher). After 24-h, the medium was changed with a new one, and cells were treated with increasing amounts of GKK1032C and CL0670 (0.1 μM, 1 μM and 5 μM) or DMSO (control cells) for 24 h at 37° C. […]

Compound	H2O2 production in neuron cells after NMDA [1]	motor discoordination (rotarod) induced by 3-nitropropionic acid (C57BL6/J male mice [2])	protection of the stroke volume caused by the Middle Cerebral Artery occlusion (C57BL6/J male mice [3])	percentage averaged stroke volume (C57BL6/J male mice [3]) [%]	mutated synuclein and number of aggregates [4]
C=CC1(C)C=C(C)C2C3C(Oc4ccc(cc4)CC4C(=O)NC(O)C4C(=O)C31)C1C(C)CC(C)CC21C (stereo not shown) [CL0670]	successful in preventing H2O2 from being produced	prevent partially	roughly 18%	39.5	significantly decreased
C=CC1(C)C=C(C)C2C3C(Oc4ccc(cc4)CC4(O)NC(=O)C5(OC45)C(=O)C31)C1C(C)CC(C)CC21C (stereo not shown) [Compound I]	successful in preventing H2O2 from being produced	prevent partially	roughly 18%	39.5	significantly decreased
